Reference: paper PMC7377239, “Cardiovascular Effects of Polychlorinated Biphenyls and Their Major Metabolites” (Environmental Health Perspectives, 2020)
Read-outs that look alike come from different tables or passages of the source.

Tested on: iCell cardiomyocytes (human iPSC-derived cardiomyocytes)
Assay: High-content imaging of cytotoxicity and mitochondrial integrity in iPSC-CMs
Type: cell-based
Conditions: Homo sapiens; for viability at 0.01 µM / activity at 0.01 µM / viability at 0.1 µM / activity at 0.1 µM / viability at 1 µM / activity at 1 µM / viability at 10 µM / activity at 10 µM / viability at 100 µM / activity at 100 µM: 0.00 µM = 100.00; for viability at 0.1 µM / activity at 0.1 µM: 0.10 µM
Outline: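 Human iPSC-derived cardiomyocytes were seeded on gelatin-coated 384-well plates at 5,000 cells per well and maintained for 12 d. Test chemicals were added as 10μL of 5× solutions to final concentrations of 0.01 to 100μM. Cells were stained with Hoechst 33342 and MitoTracker™ Orange, fixed in formaldehyde, and imaged by confocal high-content microscopy at 10× magnification.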

[1] = Cardiomyocyte, 1.5 h, read-out: cm.cam.90min
[2] = Cardiomyocyte, 1.5 h, read-out: cm.mii.90min
[3] = Cardiomyocyte, 1.5 h, read-out: cm.mito.90min
[4] = Cardiomyocyte, 1.5 h, read-out: cm.tc.90min
[5] = Cardiomyocyte, 24 h, read-out: cm.cam.24hrs
[6] = Cardiomyocyte, 24 h, read-out: cm.mii.24hrs
[7] = Cardiomyocyte, 24 h, read-out: cm.mito.24hrs
[8] = Cardiomyocyte, 24 h, read-out: cm.tc.24hrs

## Oc1cc(Cl)cc(-c2cccc(Cl)c2)c1 [5-OH PCB 11]
[1]
  viability at 0.01 µM: 91%
  viability at 0.1 µM: 96.6%
  viability at 1 µM: 99%
  viability at 10 µM: 98.4%
  viability at 100 µM: 0%
[2]
  activity at 0.01 µM: 117%
  activity at 0.1 µM: 96.6%
  activity at 1 µM: 90.6%
  activity at 10 µM: 108%
  activity at 100 µM: 69.7%
[3]
  activity at 0.01 µM: 90.7%
  activity at 0.1 µM: 96.4%
  activity at 1 µM: 99%
  activity at 10 µM: 98%
  activity at 100 µM: 0.0231%
[4]
  viability at 0.01 µM: 91.1%
  viability at 0.1 µM: 96.5%
  viability at 1 µM: 99%
  viability at 10 µM: 98%
  viability at 100 µM: 0.0231%
[5]
  viability at 0.01 µM: 99%
  viability at 0.1 µM: 101%
  viability at 1 µM: 99.8%
  viability at 10 µM: 98.2%
  viability at 100 µM: 0.0236%
[6]
  activity at 0.01 µM: 95.3%
  activity at 0.1 µM: 93.9%
  activity at 1 µM: 100%
  activity at 10 µM: 81.6%
  activity at 100 µM: 0%
[7]
  activity at 0.01 µM: 97%
  activity at 0.1 µM: 100%
  activity at 1 µM: 97.8%
  activity at 10 µM: 98.7%
  activity at 100 µM: 0%
[8]
  viability at 0.01 µM: 99.8%
  viability at 0.1 µM: 101%
  viability at 1 µM: 99.8%
  viability at 10 µM: 97.8%
  viability at 100 µM: 0.0229%
iPSC-CM, 1.5 h, iPSC-CM, read-out: cm.cam.90min POD
  minimal effective concentration: 16.2 µM
iPSC-CM, 1.5 h, iPSC-CM, read-out: cm.mii.90min POD
  minimal effective concentration: 34.1 µM
iPSC-CM, 1.5 h, iPSC-CM, read-out: cm.mito.90min POD
  minimal effective concentration: 13.8 µM
iPSC-CM, 1.5 h, iPSC-CM, read-out: cm.tc.90min POD
  minimal effective concentration: 14 µM
iPSC-CM, 24 h, iPSC-CM, read-out: cm.cam.24hrs POD
  minimal effective concentration: 13.8 µM
iPSC-CM, 24 h, iPSC-CM, read-out: cm.mii.24hrs POD
  minimal effective concentration: 8.43 µM
iPSC-CM, 24 h, iPSC-CM, read-out: cm.mito.24hrs POD
  minimal effective concentration: 14.6 µM
iPSC-CM, 24 h, iPSC-CM, read-out: cm.tc.24hrs POD
  minimal effective concentration: 10.7 µM

## Oc1cc(Cl)cc(-c2cccc(Cl)c2)c1 [5-OH-PCB 11]
Cardiomyocyte, 1.5 h, cardiomyocytes (cm), cam, 90 min, read-out: POD cm.cam.90min
  minimal effective concentration: 16.2 µM
Cardiomyocyte, 1.5 h, cardiomyocytes (cm), mii, 90 min, read-out: POD cm.mii.90min
  minimal effective concentration: 34.1 µM
Cardiomyocyte, 1.5 h, cardiomyocytes (cm), mito, 90 min, read-out: POD cm.mito.90min
  minimal effective concentration: 13.8 µM
Cardiomyocyte, 1.5 h, cardiomyocytes (cm), tc, 90 min, read-out: POD cm.tc.90min
  minimal effective concentration: 14 µM
Cardiomyocyte, 24 h, cardiomyocytes (cm), cam, 24 hrs, read-out: POD cm.cam.24hrs
  minimal effective concentration: 13.8 µM
Cardiomyocyte, 24 h, cardiomyocytes (cm), mii, 24 hrs, read-out: POD cm.mii.24hrs
  minimal effective concentration: 8.43 µM
Cardiomyocyte, 24 h, cardiomyocytes (cm), mito, 24 hrs, read-out: POD cm.mito.24hrs
  minimal effective concentration: 14.6 µM
Cardiomyocyte, 24 h, cardiomyocytes (cm), tc, 24 hrs, read-out: POD cm.tc.24hrs
  minimal effective concentration: 10.7 µM
